Experimental data reported in ChEMBL document CHEMBL1201862, “PubChem BioAssay data set” (2004).
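48-hour exposure; five concentrations; linearly interpolated endpoints. The concentration for 50% growth inhibition is given as GI50.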 Active and inactive are the calls of the source. Cut-off read from the data, not from the text of the source: active = GI50 up to about 1.1 µM and inactive = higher.

How the values were obtained:
Assay in all cases: NCI tumour cell line growth inhibition, 48 h
M14 = test system: M14
UACC-62 = test system: UACC-62
CCRF-CEM = test system: CCRF-CEM
TK-10 = test system: TK-10
786-0 = test system: 786-0
BT-549 = test system: BT-549
NCI-H23 = test system: NCI-H23
SW-620 = test system: SW-620
K562 = test system: K562
SNB-19 = test system: SNB-19
HOP-92 = test system: HOP-92
DU-145 = test system: DU-145
SNB-75 = test system: SNB-75
A498 = test system: A498
NCI-H460 = test system: NCI-H460
HCT-116 = test system: HCT-116
MDA-MB-435 = test system: MDA-MB-435
SK-MEL-2 = test system: SK-MEL-2
MDA-N = test system: MDA-N
NCI/ADR-RES = test system: NCI/ADR-RES
CAKI-1 = test system: CAKI-1
SR = test system: SR
HCC 2998 = test system: HCC 2998
A549 = test system: A549
OVCAR-4 = test system: OVCAR-4
EKVX = test system: EKVX
NCI-H522 = test system: NCI-H522
SN12C = test system: SN12C
SK-MEL-28 = test system: SK-MEL-28
KM12 = test system: KM12
PC-3 = test system: PC-3
U-251 = test system: U-251
MDA-MB-231 = test system: MDA-MB-231
HOP-62 = test system: HOP-62
Malme-3M = test system: Malme-3M
OVCAR-5 = test system: OVCAR-5
SF-268 = test system: SF-268
OVCAR-3 = test system: OVCAR-3
NCI-H226 = test system: NCI-H226
SK-MEL-5 = test system: SK-MEL-5
HCT-15 = test system: HCT-15
T47D = test system: T47D
SF-295 = test system: SF-295
ACHN = test system: ACHN
IGROV-1 = test system: IGROV-1
Hs-578T = test system: Hs-578T
HT-29 = test system: HT-29
UO-31 = test system: UO-31
LOX IMVI = test system: LOX IMVI
OVCAR-8 = test system: OVCAR-8
RXF 393 = test system: RXF 393
MOLT-4 = test system: MOLT-4
UACC-257 = test system: UACC-257
SK-OV-3 = test system: SK-OV-3
MCF7 = test system: MCF7
RPMI-8226 = test system: RPMI-8226
HL-60 = test system: HL-60
COLO 205 = test system: COLO 205

Cn1c(=O)c2c(nc(NCCNc3nc4c(c(=O)n(C)c(=O)n4C)n3C)n2C)n(C)c1=O was tested, and the GI50 (M14) was > 100 µM (inactive), the GI50 (UACC-62) was > 100 µM (inactive) and the GI50 (CCRF-CEM) was > 100 µM (inactive). For the same compound, the GI50 (TK-10) was > 100 µM (inactive), the GI50 (786-0) was > 100 µM (inactive) and the GI50 (BT-549) was > 100 µM (inactive). For the same compound, the GI50 (NCI-H23) was > 100 µM (inactive), the GI50 (SW-620) was > 100 µM (inactive) and the GI50 (K562) was > 100 µM (inactive). The GI50 (SNB-19) was > 100 µM (inactive), the GI50 (HOP-92) was > 100 µM (inactive) and the GI50 (DU-145) was > 100 µM (inactive). The GI50 (SNB-75) was > 100 µM (inactive), the GI50 (A498) was > 100 µM (inactive) and the GI50 (NCI-H460) was > 100 µM (inactive). The GI50 (HCT-116) was > 100 µM (inactive), the GI50 (MDA-MB-435) was > 100 µM (inactive) and the GI50 (SK-MEL-2) was > 100 µM (inactive). The GI50 (MDA-N) was > 100 µM (inactive), the GI50 (NCI/ADR-RES) was > 100 µM (inactive) and the GI50 (CAKI-1) was > 100 µM (inactive). The GI50 (SR) was > 100 µM (inactive), the GI50 (HCC 2998) was > 100 µM (inactive) and the GI50 (A549) was > 100 µM (inactive). For the same compound, the GI50 (OVCAR-4) was > 100 µM (inactive), the GI50 (EKVX) was > 100 µM (inactive) and the GI50 (NCI-H522) was > 100 µM (inactive). The GI50 (SN12C) was > 100 µM (inactive), the GI50 (SK-MEL-28) was > 100 µM (inactive) and the GI50 (KM12) was > 100 µM (inactive). The GI50 (PC-3) was > 100 µM (inactive), the GI50 (U-251) was > 100 µM (inactive) and the GI50 (MDA-MB-231) was > 100 µM (inactive). For the same compound, the GI50 (HOP-62) was > 100 µM (inactive), the GI50 (Malme-3M) was > 100 µM (inactive) and the GI50 (OVCAR-5) was > 100 µM (inactive). The GI50 (SF-268) was > 100 µM (inactive), the GI50 (OVCAR-3) was > 100 µM (inactive) and the GI50 (NCI-H226) was > 100 µM (inactive). For the same compound, the GI50 (SK-MEL-5) was > 100 µM (inactive), the GI50 (HCT-15) was > 100 µM and the GI50 (T47D) was > 100 µM (inactive). The GI50 (SF-295) was > 100 µM (inactive), the GI50 (ACHN) was > 100 µM (inactive) and the GI50 (IGROV-1) was > 100 µM (inactive). The GI50 (Hs-578T) was > 100 µM (inactive), the GI50 (HT-29) was > 100 µM (inactive) and the GI50 (UO-31) was > 100 µM (inactive). The GI50 (LOX IMVI) was > 100 µM (inactive), the GI50 (OVCAR-8) was > 100 µM (inactive) and the GI50 (RXF 393) was > 100 µM (inactive). For the same compound, the GI50 (MOLT-4) was > 100 µM (inactive) and the GI50 (UACC-257) was > 100 µM (inactive).

O=[N+]([O-])c1ccc(-c2csc3nc(-c4ccccc4)nn23)cc1 was tested, and the GI50 (M14) was > 100 µM (inactive), the GI50 (UACC-62) was > 100 µM (inactive) and the GI50 (CCRF-CEM) was > 100 µM (inactive). For the same compound, the GI50 (TK-10) was > 100 µM (inactive), the GI50 (786-0) was 98.2 µM (inactive) and the GI50 (BT-549) was > 100 µM (inactive). The GI50 (NCI-H23) was > 100 µM (inactive), the GI50 (SW-620) was > 100 µM (inactive) and the GI50 (K562) was > 100 µM (inactive). The GI50 (SNB-19) was > 100 µM (inactive), the GI50 (HOP-92) was 50.5 µM (inactive) and the GI50 (DU-145) was > 100 µM (inactive). The GI50 (SNB-75) was 94.6 µM (inactive), the GI50 (A498) was > 100 µM (inactive) and the GI50 (SK-OV-3) was 61.9 µM (inactive). For the same compound, the GI50 (HCT-116) was > 100 µM (inactive), the GI50 (MDA-MB-435) was > 100 µM (inactive) and the GI50 (SK-MEL-2) was > 100 µM (inactive). For the same compound, the GI50 (MDA-N) was > 100 µM (inactive), the GI50 (NCI/ADR-RES) was > 100 µM (inactive) and the GI50 (CAKI-1) was 72.8 µM (inactive). The GI50 (SR) was > 100 µM (inactive), the GI50 (HCC 2998) was > 100 µM (inactive) and the GI50 (A549) was > 100 µM (inactive). The GI50 (MCF7) was > 100 µM (inactive), the GI50 (OVCAR-4) was > 100 µM (inactive) and the GI50 (EKVX) was > 100 µM (inactive). The GI50 (NCI-H522) was > 100 µM (inactive), the GI50 (SN12C) was > 100 µM (inactive) and the GI50 (SK-MEL-28) was > 100 µM (inactive). The GI50 (KM12) was > 100 µM (inactive), the GI50 (PC-3) was > 100 µM (inactive) and the GI50 (U-251) was 39.8 µM (inactive). For the same compound, the GI50 (MDA-MB-231) was 44 µM (inactive), the GI50 (RPMI-8226) was > 100 µM (inactive) and the GI50 (HL-60) was > 100 µM (inactive). The GI50 (HOP-62) was 43.9 µM (inactive), the GI50 (Malme-3M) was > 100 µM (inactive) and the GI50 (OVCAR-5) was > 100 µM (inactive). For the same compound, the GI50 (SF-268) was 82 µM (inactive), the GI50 (OVCAR-3) was > 100 µM (inactive) and the GI50 (NCI-H226) was > 100 µM (inactive). The GI50 (SK-MEL-5) was > 100 µM (inactive), the GI50 (HCT-15) was > 100 µM and the GI50 (SF-295) was 28.3 µM (inactive). For the same compound, the GI50 (ACHN) was > 100 µM (inactive), the GI50 (IGROV-1) was > 100 µM (inactive) and the GI50 (Hs-578T) was > 100 µM (inactive). For the same compound, the GI50 (HT-29) was > 100 µM (inactive), the GI50 (UO-31) was > 100 µM (inactive) and the GI50 (LOX IMVI) was > 100 µM (inactive). For the same compound, the GI50 (COLO 205) was > 100 µM (inactive), the GI50 (OVCAR-8) was 47.5 µM (inactive) and the GI50 (RXF 393) was 40.8 µM (inactive). For the same compound, the GI50 (MOLT-4) was > 100 µM (inactive) and the GI50 (UACC-257) was > 100 µM (inactive).
